Measured values from US20240246932A1 (Merck Sharp & Dohme LLC, priority 2021, published 2024).

Biological target: human NaV 1.8 channels stably expressed in HEK 293 cells (Homo sapiens (Human), UniProt Q9Y5Y9)
Experiment: Nav1.8 Qube automated patch-clamp assay
Assay type: cell-based
Details: human NaV1.8 in HEK 293 cells, whole-cell voltage clamp, room temperature; read-out: IC50 values (nM) for Examples in the Nav1.8 Qube Assay
Method in brief: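 Whole-cell voltage clamp at room temperature on HEK293 cells; from −90 mV, a 10 s 1 Hz train of 20 ms pulses to 10 mV (repolarising to −67 mV) was applied. Peak currents at pulses 1 and 10 gave resting- and inactivated-state inhibition; IC50 fitted by Hill equation. Internal CsF/CsCl buffer.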

human NaV 1.8 channels stably expressed in HEK 293 cells, sequence (Q9Y5Y9 whole entry): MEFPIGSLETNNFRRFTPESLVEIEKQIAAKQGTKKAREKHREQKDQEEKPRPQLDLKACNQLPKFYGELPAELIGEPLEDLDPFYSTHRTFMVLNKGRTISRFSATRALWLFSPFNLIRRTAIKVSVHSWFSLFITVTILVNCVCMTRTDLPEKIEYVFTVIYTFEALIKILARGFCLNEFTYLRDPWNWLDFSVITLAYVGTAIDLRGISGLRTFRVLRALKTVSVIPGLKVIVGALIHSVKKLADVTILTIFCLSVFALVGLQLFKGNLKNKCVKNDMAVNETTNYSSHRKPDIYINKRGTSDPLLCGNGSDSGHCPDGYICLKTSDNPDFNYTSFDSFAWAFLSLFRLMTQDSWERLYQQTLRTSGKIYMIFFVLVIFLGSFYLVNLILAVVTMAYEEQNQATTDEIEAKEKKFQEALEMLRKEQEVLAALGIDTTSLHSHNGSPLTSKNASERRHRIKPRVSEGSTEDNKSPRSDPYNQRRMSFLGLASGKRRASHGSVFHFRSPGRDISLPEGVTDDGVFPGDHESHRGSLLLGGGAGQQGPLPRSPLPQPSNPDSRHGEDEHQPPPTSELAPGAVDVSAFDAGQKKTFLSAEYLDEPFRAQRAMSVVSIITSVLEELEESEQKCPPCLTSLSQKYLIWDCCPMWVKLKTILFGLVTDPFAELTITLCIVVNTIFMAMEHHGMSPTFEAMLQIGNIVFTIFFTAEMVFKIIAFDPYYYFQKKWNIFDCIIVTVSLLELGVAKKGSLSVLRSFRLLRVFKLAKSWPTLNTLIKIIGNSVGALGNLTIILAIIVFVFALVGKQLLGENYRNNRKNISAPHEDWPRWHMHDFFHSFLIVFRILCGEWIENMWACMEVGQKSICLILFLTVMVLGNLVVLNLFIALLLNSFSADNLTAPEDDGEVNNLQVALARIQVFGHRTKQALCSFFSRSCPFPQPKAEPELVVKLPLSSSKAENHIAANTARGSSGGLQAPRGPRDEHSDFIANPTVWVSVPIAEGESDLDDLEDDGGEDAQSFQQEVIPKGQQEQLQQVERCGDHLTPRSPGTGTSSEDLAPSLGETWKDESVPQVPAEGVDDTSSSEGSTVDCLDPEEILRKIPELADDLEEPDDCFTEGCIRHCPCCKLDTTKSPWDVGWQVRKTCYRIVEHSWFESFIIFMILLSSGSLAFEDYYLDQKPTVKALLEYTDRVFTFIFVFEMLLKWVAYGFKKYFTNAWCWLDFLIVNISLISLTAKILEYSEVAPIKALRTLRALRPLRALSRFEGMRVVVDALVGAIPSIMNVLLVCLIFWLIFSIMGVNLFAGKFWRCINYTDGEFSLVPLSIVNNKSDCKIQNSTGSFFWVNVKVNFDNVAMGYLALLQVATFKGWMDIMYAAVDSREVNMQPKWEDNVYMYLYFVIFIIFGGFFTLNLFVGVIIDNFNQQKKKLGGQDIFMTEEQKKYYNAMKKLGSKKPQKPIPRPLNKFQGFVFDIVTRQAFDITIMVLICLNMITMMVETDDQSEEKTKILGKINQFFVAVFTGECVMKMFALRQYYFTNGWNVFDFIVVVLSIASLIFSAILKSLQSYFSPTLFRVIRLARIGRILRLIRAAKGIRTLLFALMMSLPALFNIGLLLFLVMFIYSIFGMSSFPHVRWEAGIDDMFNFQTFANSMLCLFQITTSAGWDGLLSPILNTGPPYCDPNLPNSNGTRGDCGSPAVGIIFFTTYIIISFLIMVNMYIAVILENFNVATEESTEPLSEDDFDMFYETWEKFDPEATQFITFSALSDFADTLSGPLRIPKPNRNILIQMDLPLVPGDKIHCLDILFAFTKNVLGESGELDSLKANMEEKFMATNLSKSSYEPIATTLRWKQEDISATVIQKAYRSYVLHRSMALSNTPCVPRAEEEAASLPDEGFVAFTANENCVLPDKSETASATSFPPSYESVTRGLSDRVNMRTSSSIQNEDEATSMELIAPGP

SMILES | IC50 [nM]
O=C1NCCN(C(=O)NC(c2ccc(C(F)(F)F)nc2)c2ccc(F)c(Cl)c2F)C1C1CC1 (single isomer, unassigned) [Example 38A, N—((R or S)-(3-chloro-2,4-difluorophenyl)(6-(trifluoromethyl)pyridin-3-yl)methyl)-(R)-2-cyclopropyl-3-oxopiperazine-1-carboxamide] | 559
O=C1NCCN(C(=O)NC(c2ccc(C(F)(F)F)nc2)c2ccc(F)c(Cl)c2F)C1C1CC1 (single isomer, unassigned) [Example 38B, N—((R or S)-(3-chloro-2,4-difluorophenyl)(6-(trifluoromethyl)pyridin-3-yl)methyl)-(S)-2-cyclopropyl-3-oxopiperazine-1-carboxamide] | 2.22
CC(C)C1C(=O)NCCN1C(=O)NC(c1ccc(C(F)(F)F)nc1)c1ccc(F)c(Cl)c1F (single isomer, unassigned) [Example 39A, N-((R or S)-(3-chloro-2,4-difluorophenyl)(6-(trifluoromethyl)pyridin-3-yl)methyl)-(R or S)-2-isopropyl-3-oxo-piperazine-1-carboxamide] | 2630
CC(C)C1C(=O)NCCN1C(=O)NC(c1ccc(C(F)(F)F)nc1)c1ccc(F)c(Cl)c1F (single isomer, unassigned) [Example 39B, N-((R or S)-(3-chloro-2,4-difluorophenyl)(6-(trifluoromethyl)pyridin-3-yl)methyl)-(S or R)-2-isopropyl-3-oxo-piperazine-1-carboxamide] | 15.2
CCC1C(=O)NCCN1C(=O)NC(c1ccc(C(F)(F)F)nc1)c1ccc(F)c(Cl)c1F (single isomer, unassigned) [Example 40A, N-((R or S)-(3-chloro-2,4-difluorophenyl)(6-(trifluoromethyl)pyridin-3-yl)methyl)-(R or S)-2-ethyl-3-oxopiperazine-1-carboxamide] | 729
CCC1C(=O)NCCN1C(=O)NC(c1ccc(C(F)(F)F)nc1)c1ccc(F)c(Cl)c1F (single isomer, unassigned) [Example 40B, N-((R or S)-(3-chloro-2,4-difluorophenyl)(6-(trifluoromethyl)pyridin-3-yl)methyl)-(S or R)-2-ethyl-3-oxopiperazine-1-carboxamide] | 10.5
O=C1NCCN(C(=O)NC(c2cnc(C(F)(F)F)nc2)c2ccc(F)c(Cl)c2F)C1C1CC1 (single isomer, unassigned) [Example 41A, N-((R or S)-(3-chloro-2,4-difluorophenyl)(2-(trifluoromethyl)pyrimidin-5-yl)methyl)-(R or S)-2-cyclopropyl-3-oxopiperazine-1-carboxamide] | 2020
O=C1NCCN(C(=O)NC(c2cnc(C(F)(F)F)nc2)c2ccc(F)c(Cl)c2F)C1C1CC1 (single isomer, unassigned) [Example 41B, N-((R or S)-(3-chloro-2,4-difluorophenyl)(2-(trifluoromethyl)pyrimidin-5-yl)methyl)-(S or R)-2-cyclopropyl-3-oxopiperazine-1-carboxamide] | 4.94
O=C1CN(C(=O)NC(c2ccc(F)c(Cl)c2)c2cccc(C(F)(F)F)n2)CCN1 (single isomer, unassigned) [Example 42, N—((R or S)-(3-chloro-4-fluorophenyl)(6-(trifluoromethyl)pyridin-2-yl)methyl)-3-oxopiperazine-1-carboxamide] | 32.2
CC1(C)C(=O)NCCN1C(=O)NC(c1ccc(F)c(Cl)c1)c1cccc(C(F)(F)F)n1 (single isomer, unassigned) [Example 43, N-((R or S)-(3-chloro-4-fluorophenyl)(6-(trifluoromethyl)pyridin-2-yl)methyl)-2,2-dimethyl-3-oxopiperazine-1-carboxamide] | 230
C[C@@H]1C(=O)NCCN1C(=O)NC(c1ccc(F)c(Cl)c1)c1cccc(C(F)(F)F)n1 (single isomer, unassigned) [Example 44] | 8.55
C[C@H]1C(=O)NCCN1C(=O)NC(c1ccc(F)c(Cl)c1)c1cccc(C(F)(F)F)n1 (single isomer, unassigned) [Example 45, (2S)-N-((R or S)-(3-chloro-4-fluoro-phenyl)(6-(trifluoro-methyl)pyridin-2-yl)methyl)-2-methyl-3-oxopiperazine-1-carboxamide] | 1700
C[C@H]1CN(C(=O)NC(c2ccc(F)c(Cl)c2)c2cccc(C(F)(F)F)n2)CC(=O)N1 (single isomer, unassigned) [Example 46A, (3S)-N-((R or S)-(3-chloro-4-fluoro-phenyl)(6-(trifluoro-methyl)pyridin-2-yl)methyl)-3-methyl-5-oxopiperazine-1-carboxamide] | 924
C[C@@H]1CN(C(=O)NC(c2ccc(F)c(Cl)c2)c2cccc(C(F)(F)F)n2)CC(=O)N1 (single isomer, unassigned) [Example 46B, (3R)-N-((S or R)-(3-chloro-4-fluoro-phenyl)(6-(trifluoro-methyl)pyridin-2-yl)methyl)-3-methyl-5-oxopiperazine-1-carboxamide] | 506
O=C1CN(C(=O)NC(c2ccc(F)c(Cl)c2)c2cccc(C(F)(F)F)n2)[C@@H](CF)CN1 (single isomer, unassigned) [Example 47A, (2R)-N-((R or S)-(3-chloro-4-fluoro-phenyl)(6-(trifluoro-methyl)pyridin-2-yl)methyl)-2-(fluoromethyl)-5-oxopiperazine-1-carboxamide] | 2310
O=C1CN(C(=O)NC(c2ccc(F)c(Cl)c2)c2cccc(C(F)(F)F)n2)[C@H](CF)CN1 (single isomer, unassigned) [Example 47B, (2S)-N-((R or S)-(3-chloro-4-fluoro-phenyl)(6-(trifluoro-methyl)pyridin-2-yl)methyl)-2-(fluoromethyl)-5-oxopiperazine-1-carboxamide] | 3760
C[C@@H]1C(=O)NCCN1C(=O)NC(c1cnc(OCC(F)(F)F)c(F)c1)c1ccc(F)c(C(F)(F)F)n1 (single isomer, unassigned) [Example 48A] | 4.78
C[C@@H]1C(=O)NCCN1C(=O)NC(c1cnc(OCC(F)(F)F)c(F)c1)c1ccc(F)c(C(F)(F)F)n1 (single isomer, unassigned) [Example 48B] | 209
C[C@@H]1C(=O)NCCN1C(=O)NC(c1ccc(F)c(F)c1)c1ccc(F)c(C(F)(F)F)n1 (single isomer, unassigned) [Example 49A, (2R)-N-((R or S)-(3,4-difluorophenyl)(5-fluoro-6-(trifluoro-methyl)pyridin-2-yl)methyl)-2-methyl-3-oxopiperazine-1-carboxamide] | 258
C[C@@H]1C(=O)NCCN1C(=O)NC(c1ccc(OCC(F)(F)F)nc1)c1ccc(F)c(C(F)(F)F)n1 (single isomer, unassigned) [Example 50A, (2R)-N-((R or S)-(5-fluoro-6-(trifluoro-methyl)pyridin-2-yl)(6-(2,2,2-trifluoro-ethoxy)pyridin-3-yl)methyl)-2-methyl-3-oxopiperazine-1-carboxamide] | 73.7
C[C@@H]1C(=O)NCCN1C(=O)NC(c1ccc(OCC(F)(F)F)nc1)c1ccc(F)c(C(F)(F)F)n1 (single isomer, unassigned) [Example 50B, (2R)-N-((S or R)-(5-fluoro-6-(trifluoro-methyl)pyridin-2-yl)(6-(2,2,2-trifluoro-ethoxy)pyridin-3-yl)methyl)-2-methyl-3-oxopiperazine-1-carboxamide] | 8.55
C[C@@H]1C(=O)NCCN1C(=O)NC(c1ccc(OC(F)(F)F)nc1)c1ccc(F)c(C(F)(F)F)n1 (single isomer, unassigned) [Example 51A, (2R)-N-((R or S)-(5-fluoro-6-(trifluoromethyl)pyridin-2-yl)(6-(trifluoro-methoxy)pyridin-3-yl)methyl)-2-methyl-3-oxopiperazine-1-carboxamide] | 129
C[C@@H]1C(=O)NCCN1C(=O)NC(c1ccc(OC(F)(F)F)nc1)c1ccc(F)c(C(F)(F)F)n1 (single isomer, unassigned) [Example 51B, (2R)-N-((S or R)-(5-fluoro-6-(trifluoro-methyl)pyridin-2-yl)(6-(trifluoromethoxy)pyridin-3-yl)methyl)-2-methyl-3-oxopiperazine-1-carboxamide] | 13.2
C[C@@H]1C(=O)NCCN1C(=O)NC(c1ccc(Cl)c(C#N)c1)c1ccc(F)c(C(F)(F)F)n1 (single isomer, unassigned) [Example 52A, (2R)-N-((R or S)-(4-chloro-3-cyano-phenyl)(5-fluoro-6-(trifluoromethyl)pyridin-2-yl)methyl)-2-methyl-3-oxopiperazine-1-carboxamide] | 5.79
C[C@@H]1C(=O)NCCN1C(=O)NC(c1ccc(Cl)c(C#N)c1)c1ccc(F)c(C(F)(F)F)n1 (single isomer, unassigned) [Example 52B, (2R)-N-((S or R)-(4-chloro-3-cyano-phenyl)(5-fluoro-6-(trifluoromethyl)pyridin-2-yl)methyl)-2-methyl-3-oxopiperazine-1-carboxamide] | 64.5
C[C@@H]1C(=O)NCCN1C(=O)NC(c1ccc(Cl)c(F)c1)c1ccc(F)c(C(F)(F)F)n1 (single isomer, unassigned) [Example 53A, (2R)-N-((R or S)-(4-chloro-3-fluoro-phenyl)(5-fluoro-6-(trifluoromethyl)pyridin-2-yl)methyl)-2-methyl-3-oxopiperazine-1-carboxamide] | 68.9
C[C@@H]1C(=O)NCCN1C(=O)NC(c1ccc(Cl)c(F)c1)c1ccc(F)c(C(F)(F)F)n1 (single isomer, unassigned) [Example 53B, (2R)-N-((S or R)-(4-chloro-3-fluoro-phenyl)(5-fluoro-6-(trifluoromethyl)pyridin-2-yl)methyl)-2-methyl-3-oxopiperazine-1-carboxamide] | 1.38
